Activity calls are given as the source filed them. The rule behind the calls is not given here.
How the values were obtained:
[1] = test system: HeLa; test: Cytotoxicity against human HeLa cells; assay type: cell-based
[2] = test system: Human alphaherpesvirus 1; test: Antiviral activity against thymidine kinase deficient HSV1; assay type: functional, organism-based
[3] = test system: unidentified adenovirus; test: Antiviral activity against adenovirus; assay type: functional, organism-based
[4] = test system: Sindbis virus; test: Antiviral activity against Sindbis virus; assay type: functional, organism-based
[5] = test system: Punta Toro virus; test: Antiviral activity against Punta Toro virus; assay type: functional, organism-based
[6] = test system: A549; test: Cytotoxicity against human A549 cells; assay type: cell-based
[7] = test system: Human alphaherpesvirus 1; test: Antiviral activity against HSV1; assay type: functional, organism-based
[8] = test system: Feline coronavirus; test: Antiviral activity against Feline coronavirus; assay type: functional, organism-based
[9] = Cytotoxicity against cat CRFK cells; assay type: cell-based, Felis catus
[10] = test system: Measles morbillivirus; test: Antiviral activity against measles virus MO6 by visual assay; assay type: functional, organism-based
[11] = test system: Human respirovirus 3; test: Antiviral activity against Parainfluenza 3 virus; assay type: functional, organism-based
[12] = test system: MDCK; test: Cytotoxicity against dog MDCK cells; assay type: cell-based, Canis lupus familiaris
[13] = test system: Vaccinia virus; test: Antiviral activity against vaccinia virus; assay type: functional, organism-based; conditions: Orthopoxvirus vaccinia
[14] = test system: Measles morbillivirus; test: Antiviral activity against measles virus MO6 by neutral red assay; assay type: functional, organism-based
[15] = test system: HFF; test: Cytotoxicity against human HFF cells; assay type: cell-based
[16] = test system: Vesicular stomatitis virus; test: Antiviral activity against in Vesicular stomatitis virus; assay type: functional, organism-based
[17] = Cytotoxicity against rhesus monkey MA104 cells; assay type: cell-based, Macaca mulatta
[18] = test system: Respiratory syncytial virus; test: Antiviral activity against RSV; assay type: functional, organism-based
[19] = test system: Vero; test: Cytotoxicity against african green monkey Vero cells; assay type: cell-based; conditions: chlorocebus sabaeus
[20] = test system: Cowpox virus; test: Antiviral activity against Cowpox virus; assay type: functional, organism-based
[21] = test system: Mammalian orthoreovirus 1; test: Antiviral activity against Reovirus1; assay type: functional, organism-based
[22] = test system: Coxsackievirus B4; test: Antiviral activity against Coxsackie virus B4; assay type: functional, organism-based
[23] = test system: HEL; test: Cytotoxicity against human HEL cells; assay type: cell-based
[24] = test system: Human alphaherpesvirus 2; test: Antiviral activity against HSV2; assay type: functional, organism-based
[25] = test system: Enterovirus; test: Antiviral activity against rhinovirus; assay type: functional, organism-based
[26] = test system: Hepatitis C virus; test: Antiviral activity against HCV; assay type: functional, organism-based; conditions: Hepacivirus hominis
[27] = Cytotoxicity against human Huh7ET cells; assay type: cell-based; conditions: huh-7
[28] = Cytotoxicity against african green monkey CV1 cells; assay type: cell-based; conditions: chlorocebus aethiops, cv-1
[29] = test system: West Nile virus; test: Antiviral activity against West Nile virus; assay type: functional, organism-based

## Nc1ncnc2c1ncn2[C@@H]1C[C@H](CF)[C@@H](O)[C@H]1O
[1]
  Activity: Non-toxic
[2]
  Activity: inactive
[3]
  Activity: inactive
[4]
  Activity: inactive
[5]
  Activity: inactive
[6]
  Activity: Non-toxic
[7]
  Activity: inactive
[8]
  Activity: inactive
[9]
  Activity: Non-toxic
[10]
  EC50: 13 µM
[11]
  Activity: inactive
[12]
  Activity: Non-toxic
[13]
  Activity: inactive
[14]
  EC50: 2.8 µM
[15]
  Activity: Non-toxic
[16]
  Activity: inactive
[17]
  Activity: Non-toxic
[18]
  Activity: inactive
[19]
  Activity: Non-toxic
[20]
  Activity: inactive
[21]
  Activity: inactive
[22]
  Activity: inactive
[23]
  Activity: Non-toxic
[24]
  Activity: inactive
[25]
  Activity: inactive
[26]
  Activity: inactive
[27]
  Activity: Non-toxic
[28]
  Activity: Non-toxic
[29]
  Activity: inactive
